Measured values: patent publication US11099188B2, “ROS kinase in lung cancer” (CELL SIGNALING TECHNOLOGY, INC., priority 2006, dated 2021)
Values belong to the molecule of their own block, whether it stands above or below them.

Key:
[1] = tested on: BaF3 cells expressing FIG-ROS(L); assay: Flow cytometry, cleaved caspase-3 as apoptosis marker, BaF3 FIG-ROS(L); assay type: cell-based; settings: in the presence of TAE-684, FIG. 19
Excerpt: (§1) The mechanism of death of the BaF3 and Karpas 299 cells was next assessed by measuring the percentage of cleaved-caspase 3 positive cells by flow cytometry assay using cleaved caspase-3 as a marker for apoptosis.

[2] = tested on: BaF3 expressing FIG-ROS(S); assay: MTS assay, growth of BaF3 cells expressing FIG-ROS(S); assay type: cell-based; settings: for IC50: Mus musculus, BaF3, 72 h
Description: (§2) BaF3 and Karpas 299 cells were obtained from DSMZ (Deutsche Sammlung von Mikroorganismen and Zellkulturen GmbH, Germany). BaF3 cells, which need interleukin-3 to survive, were maintained at 37° C. in RPMI-1640 medium (Invitrogen) with 10% fetal bovine serum (FBS) (Sigma) and 1.0 ng/ml murine IL-3 (R&D Systems). Karpas 299 cells (a lymphoma cell line) were grown in RPMI-1640 with 10% FBS.
(§3) BaF3 cells were transduced with retrovirus encoding FIG-ROS(S), FIG-ROS(L), or FLT-3ITD (the Internal tandem duplication mutation in FLT3 causes AML leukemia), and selected for IL3 independent growth. Karpas 299 cells, which express NPM-ALK, was used as a positive control. Retroviruses were generated as previously described (see PCT Publication No. WO 2010/093928, incorporated by reference).
(§4) A MTS assay was performed using the CellTiter 96 Aqueous One Solution Reagent (Promega, Catalog No G3582). […] After 72 hours, 20 μl of the CellTiter 96 Aqueous One Solution Reagent was added into each well of a 96 well assay plate (flat bottom), and then 100 μl of cells grown with or without treatment. Media-only wells were used as controls. The 96 well plate was incubated for 1-4 hours at 37° C., and then viable cells were counted by reading the absorbance at 490 nm using a 96 well plate reader.

[3] = tested on: BaF3 cells transduced with neo-myc; assay: MTS assay, growth of BaF3 cells transduced with neo-myc (negative control); assay type: cell-based; settings: Mus musculus, 72 hours, second experiment only
Description: as §2, §4

[4] = tested on: BaF3 cells transduced with the FLT-3ITD retrovirus; assay: Western blotting of phosphorylation in BaF3 cells transduced with the FLT-3ITD retrovirus; assay type: cell-based
Excerpt: (§5) All antibodies were from Cell Signaling Technology, Inc. (Danvers, Mass.)
(§6) Since ROS, ALK, LTK, InsR, and IGF1R belong to the same family of tyrosine kinases, they may share similar structure in the kinase domain.

Karpas 299 cells [5] = assay: Flow cytometry, cleaved caspase-3 as apoptosis marker, Karpas 299; assay type: cell-based; settings: in the presence of TAE-684, FIG. 19
Excerpt: as §1

[6] = tested on: BaF3 cells expressing FIG-ROS(S); assay: Flow cytometry, cleaved caspase-3 as apoptosis marker, BaF3 FIG-ROS(S); assay type: cell-based; settings: in the presence of TAE-684, FIG. 19
Excerpt: as §1

[7] = tested on: BaF3 expressing FIG-ROS(L); assay: MTS assay, growth of BaF3 cells expressing FIG-ROS(L); assay type: cell-based; settings: for IC50: Mus musculus, BaF3, 72 h
Description: as §2, §3, §4

Karpas 299 cells [8] = assay: cells; settings: for IC50: Homo sapiens, KARPAS-299, 72 h
Description: as §2, §3, §4

BaF3 expressing FLT3ITD = assay: cells; settings: for IC50: Mus musculus, BaF3, 72 h
Description: as §2, §3, §4

ALK in Karpas 299 cells = assay: Western blotting of phosphorylation in Karpas 299 cells; assay type: cell-based; settings: 0, 10, 50, or 100 nM for three hours, FIG. 20
Excerpt: as §5, §6

FIG-ROS(S) = target: T1, FIG-ROS(S) (Homo sapiens, UniProt P08922); assay: Western blotting of phosphorylation in FIG-ROS(S) expressing BaF3 cells; assay type: cell-based
T1 construct: expressed in transfected cells; host or cells: BaF3 cells, retrovirally transduced, selected for IL3-independent growth
Excerpt: as §5, §6

FIG-ROS(L) = FIG-ROS(L) (Homo sapiens, UniProt P08922); assay: Western blotting of phosphorylation in FIG-ROS(L) expressing BaF3 cells; assay type: cell-based
Excerpt: as §5, §6

[9] = 72 hours, first of two experiments
[10] = 72 hours, second of two experiments
[11] = same concentration of each, 0-1.0 uM, FIG. 21A/21B
[12] = 0, 10, 50, or 100 nM for three hours, FIG. 20
[13] = 0, 0.1, 0.3, or 1.0 uM for three hours, FIG. 22

IC50 [2, 9]: 10.2 nM
IC50 [2, 10]: 15 nM
IC50 [3]: 1640 nM
IC50 [7, 9]: 1.78 nM
IC50 [7, 10]: 2.84 nM
IC50 (Karpas 299 cells [8]; first of two experiments): 4.85 nM
IC50 (Karpas 299 cells [8]; second of two experiments): 4.36 nM
IC50 (BaF3 expressing FLT3ITD; first of two experiments): 419 nM
IC50 (BaF3 expressing FLT3ITD; second of two experiments): 316 nM
phosphorylation of FIG-ROS(S) (FIG-ROS(S); [12]): inhibited
phosphorylation of STAT3, AKT, and ERK, and Shp2 (FIG-ROS(S); [12]): inhibited
phosphorylation of FIG-ROS(L) (FIG-ROS(L); [12]): inhibited
phosphorylation of STAT3, AKT, and ERK, and Shp2 (FIG-ROS(L); [12]): inhibited
SMILES: COc1cc(N2CCC(N3CCN(C)CC3)CC2)ccc1Nc1ncc(Cl)c(Nc2ccccc2S(=O)(=O)C(C)C)n1 [TAE-684]
mechanism of death, cleaved-caspase 3 positive cells (apoptosis) [1]: die by apoptosis
cellular growth response in the presence of TAE-684 ([2]; 0-1000 nM, 72 hours, FIG. 18): stopped growing
sensitivity of cellular growth, TAE-684 compared with crizotinib [2, 11]: more sensitive to TAE-684 than to crizotinib
phosphorylation of STAT3, AKT, and ERK, and Shp2 [4, 12]: not affected
mechanism of death, cleaved-caspase 3 positive cells (apoptosis) (Karpas 299 cells [5]): did not die by apoptosis
mechanism of death, cleaved-caspase 3 positive cells (apoptosis) [6]: die by apoptosis
cellular growth response in the presence of TAE-684 ([7]; 0-1000 nM, 72 hours, FIG. 18): stopped growing
sensitivity of cellular growth, TAE-684 compared with crizotinib [7, 11]: more sensitive to TAE-684 than to crizotinib
cellular growth response in the presence of TAE-684 (Karpas 299 cells [8]; 0-1000 nM, 72 hours, FIG. 18): stopped growing
cellular growth response in the presence of TAE-684 (BaF3 expressing FLT3ITD; 0-1000 nM, 72 hours, FIG. 18): not susceptible
ALK and ERK phosphorylation (ALK in Karpas 299 cells): inhibited

phosphorylation of FIG-ROS(S) (FIG-ROS(S); [13]): inhibited
phosphorylation of STAT3 and ERK (FIG-ROS(S); [13]): inhibited
phosphorylation of FIG-ROS(L) (FIG-ROS(L); [13]): inhibited
phosphorylation of STAT3 and ERK (FIG-ROS(L); [13]): inhibited
SMILES: C[C@@H](Oc1cc(-c2cnn(C3CCNCC3)c2)cnc1N)c1c(Cl)ccc(F)c1Cl [crizotinib]
phosphorylation of STAT3 and ERK [4, 13]: not affected
